# Experimental data as given in PubChem BioAssay (NCI).
#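 Each compound was tested at five concentrations against cells in 96-well plates for 48 hours. TGI is the concentration that stops growth completely.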
# Columns and labels:
# Assay in all cases: NCI-60 cell line screen, 48 h
# [1] = test system: A549 NSCLC
# [2] = test system: CAKI-1 renal
# [3] = test system: EKVX NSCLC
# [4] = test system: HT29 colon
# [5] = test system: NCI-H23 lung
# [6] = test system: RXF 393 renal
# [7] = test system: SF-295 CNS
# [8] = test system: SF-539 CNS
# [9] = test system: SN12C renal
# [10] = test system: UACC-257 melanoma
Structure (SMILES),TGI [1],TGI [2],TGI [3],TGI [4],TGI [5],TGI [6],TGI [7],TGI [8],TGI [9],TGI [10]
C=c1c(OC)c(OC)c(O)c2c1=c1cc([N+](=O)[O-])cc(OC)c1=N2,> 100 µM,> 100 µM,> 100 µM,> 100 µM,> 100 µM,> 100 µM,> 100 µM,> 100 µM,> 100 µM,> 100 µM
O=c1c(-c2ccc(Cl)cc2)nnc2n(Cc3ccccc3)c3ccccc3n12,> 100 µM,59.8 µM,> 100 µM,> 100 µM,> 100 µM,40.2 µM,49.4 µM,37.9 µM,> 100 µM,> 100 µM
Nc1c(C(=O)c2ccc(Cl)cc2)[nH]c(NCc2ccccc2)c1C(=S)Nc1ccccc1,4.87 µM,18.6 µM,20.1 µM,3.7 µM,5.95 µM,4.16 µM,3.32 µM,13.8 µM,17 µM,3.26 µM
CC1S/C(=N/c2nnc(-c3ccccc3)o2)NC1=O (stereo not given),> 100 µM,> 100 µM,85.2 µM,69.8 µM,> 100 µM,> 100 µM,> 100 µM,> 100 µM,> 100 µM,> 100 µM
C=C1C(=O)O[C@@]23C1CC[C@@H](C)C2CC[C@@]1(C)OC31 (stereo not given in full),> 100 µM,18.4 µM,30.5 µM,25.6 µM,20.6 µM,39.9 µM,48.9 µM,12.2 µM,21.5 µM,24.4 µM
COc1ccc2c(c1)CN1C(=N2)CSC1c1ccccc1Cl (stereo not given),> 100 µM,> 100 µM,35.4 µM,32.8 µM,3.45 µM,29.7 µM,75.6 µM,32.1 µM,40.1 µM,28.8 µM
COc1c(C)c2nc3ccccc3[nH]c2c2c(=O)ccnc12,> 100 µM,> 100 µM,> 100 µM,> 100 µM,> 100 µM,71.7 µM,> 100 µM,> 100 µM,> 100 µM,> 100 µM
Cc1nn(-c2cc(Cl)ccc2[N+](=O)[O-])c(C)c1Cl,> 100 µM,> 100 µM,> 100 µM,> 100 µM,> 100 µM,76 µM,> 100 µM,> 100 µM,> 100 µM,> 100 µM
CCNC(=O)C1CCCN1C(=O)C(CCCN=C(N)N)NC(=O)C(CC(C)C)NC(=O)C(Cc1c[nH]c2ccccc12)NC(=O)C(Cc1ccc(O)cc1)NC(=O)C(CO)NC(=O)C(Cc1c[nH]c2ccccc12)NC(=O)C(Cc1cnc[nH]1)NC(=O)C1CCC(=O)N1 (stereo not given),> 100 µM,> 100 µM,> 100 µM,> 100 µM,> 100 µM,> 100 µM,> 100 µM,> 100 µM,> 100 µM,> 100 µM
CC1(CNCc2ccccc2)CC(CCc2ccccc2)N(C(=O)c2ccc([N+](=O)[O-])cc2)C1Cc1ccc(O)cc1 (stereo not given),24.8 µM,28.1 µM,31 µM,22 µM,23.5 µM,17.4 µM,25.6 µM,35.2 µM,20.8 µM,27 µM
NC(N)=NS(=O)(=O)c1ccc(NC(=O)c2ccc3nc4ccccc4c(Nc4ccc(S(=O)(=O)N=C(N)N)cc4)c3c2)cc1,> 100 µM,> 100 µM,> 100 µM,> 100 µM,> 100 µM,> 100 µM,> 100 µM,> 100 µM,> 100 µM,> 100 µM
CC1(C)C=C(S(=O)(=O)c2ccccc2)Oc2ccccc2O1,> 100 µM,> 100 µM,73.4 µM,> 100 µM,> 100 µM,> 100 µM,> 100 µM,> 100 µM,> 100 µM,> 100 µM
CC1(C)CNC(=O)C2(C=NC(C)(C)CNC(=O)C3(C=N1)CCCO3)CCCO2 (stereo not given),> 10 µM,> 10 µM,> 10 µM,> 10 µM,> 10 µM,> 10 µM,> 10 µM,> 10 µM,> 10 µM,> 10 µM
c1ccc2c3c(c(N4CCOCC4)nc2c1)CCCC3,> 100 µM,> 100 µM,63.8 µM,> 100 µM,> 100 µM,46.8 µM,> 100 µM,61.4 µM,> 100 µM,> 100 µM
O=c1c2ccccc2nc(Nc2cccc(Cl)c2)n1/N=C/C=C/c1ccccc1,> 100 µM,> 100 µM,> 100 µM,> 100 µM,> 100 µM,> 100 µM,> 100 µM,> 100 µM,> 100 µM,> 100 µM
Cc1c2ncccc2cc2oc3ccccc3c(=O)c12,> 100 µM,> 100 µM,> 100 µM,> 100 µM,> 100 µM,> 100 µM,> 100 µM,> 100 µM,> 100 µM,> 100 µM
CSc1nc2c(c(=O)n1C)N=C(c1ccccc1)[C@H](C(CC(=O)c1ccccc1)c1ccccc1)C(c1ccccc1)N2 (stereo not given in full),> 100 µM,> 100 µM,> 100 µM,> 100 µM,> 100 µM,> 100 µM,> 100 µM,> 100 µM,> 100 µM,> 100 µM
CC1(C)OCC2OC3([C@H]4OC(C)(C)O[C@@H]4CO)OC(C)(C)OC3C2O1 (stereo not given in full),> 100 µM,> 100 µM,> 100 µM,> 100 µM,> 100 µM,> 100 µM,> 100 µM,> 100 µM,> 100 µM,> 100 µM
